Results as given in patent US20230139171A1 (SITA Information Networking Computing UK Limited, priority 2019, published 2023).

Key:
Assay type in all cases: cell-based
human TLR7 = target: T1, human TLR7 (Homo sapiens, UniProt Q9NYK1); assay: TLR7 inhibition reporter assay (HEK-Blue cells, SEAP reporter, gardiquimod stimulation); conditions: HEK-Blue cells overexpressing human TLR7, SEAP reporter, gardiquimod 7.5 μM; read-out: TLR7 IC50
T1 construct: host or cells: HEK-Blue cells
T1 sequence (Q9NYK1 27-1049): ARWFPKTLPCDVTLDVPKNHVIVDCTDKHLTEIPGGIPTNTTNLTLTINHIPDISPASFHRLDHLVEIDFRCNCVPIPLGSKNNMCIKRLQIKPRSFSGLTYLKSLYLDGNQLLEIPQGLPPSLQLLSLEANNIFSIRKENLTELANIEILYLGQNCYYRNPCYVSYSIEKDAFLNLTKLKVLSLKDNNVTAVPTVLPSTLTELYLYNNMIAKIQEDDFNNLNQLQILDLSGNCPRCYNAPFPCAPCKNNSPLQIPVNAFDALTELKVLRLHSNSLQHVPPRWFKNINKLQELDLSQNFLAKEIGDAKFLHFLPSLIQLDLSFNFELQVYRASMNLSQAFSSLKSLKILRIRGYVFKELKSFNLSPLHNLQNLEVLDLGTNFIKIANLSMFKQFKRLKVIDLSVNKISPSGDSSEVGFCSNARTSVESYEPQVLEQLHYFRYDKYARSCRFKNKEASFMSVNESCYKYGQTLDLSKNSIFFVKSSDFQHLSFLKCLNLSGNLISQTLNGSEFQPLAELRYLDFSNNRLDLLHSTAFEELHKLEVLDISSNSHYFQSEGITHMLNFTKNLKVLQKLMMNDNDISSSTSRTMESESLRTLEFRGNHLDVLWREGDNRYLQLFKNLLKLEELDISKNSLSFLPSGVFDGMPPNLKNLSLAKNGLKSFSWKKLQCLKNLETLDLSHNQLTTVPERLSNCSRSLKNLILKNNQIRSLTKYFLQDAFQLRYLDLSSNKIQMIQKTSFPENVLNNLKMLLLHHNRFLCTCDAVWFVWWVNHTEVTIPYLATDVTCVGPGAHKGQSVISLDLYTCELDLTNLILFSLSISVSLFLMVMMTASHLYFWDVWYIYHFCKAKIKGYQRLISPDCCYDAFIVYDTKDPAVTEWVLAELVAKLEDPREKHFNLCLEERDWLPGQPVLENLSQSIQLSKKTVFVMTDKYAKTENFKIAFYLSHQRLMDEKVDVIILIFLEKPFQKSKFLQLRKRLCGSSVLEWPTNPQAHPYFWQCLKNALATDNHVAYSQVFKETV
In short: (§1)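 Agonists used: gardiquimod 7.5 μM (TLR7), R848 15.9 μM (TLR8), ODN2006 5 nM (TLR9), added after 30 min room-temperature compound pre-treatment (0.05 nM–50 μM) of receptor-overexpressing HEK-Blue cells. SEAP reporter (NF-κB/AP-1 driven) read after 22 h at 37 °C; inhibition scaled between agonist+DMSO and reference-inhibitor wells.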

human TLR9 = target: T2, human TLR9 (Homo sapiens, UniProt Q9NR96); assay: TLR9 inhibition reporter assay (HEK-Blue cells, SEAP reporter, ODN2006 stimulation); conditions: HEK-Blue cells overexpressing human TLR9, SEAP reporter, ODN2006 5 nM
T2 construct: host or cells: HEK-Blue cells
T2 sequence (Q9NR96 26-1032): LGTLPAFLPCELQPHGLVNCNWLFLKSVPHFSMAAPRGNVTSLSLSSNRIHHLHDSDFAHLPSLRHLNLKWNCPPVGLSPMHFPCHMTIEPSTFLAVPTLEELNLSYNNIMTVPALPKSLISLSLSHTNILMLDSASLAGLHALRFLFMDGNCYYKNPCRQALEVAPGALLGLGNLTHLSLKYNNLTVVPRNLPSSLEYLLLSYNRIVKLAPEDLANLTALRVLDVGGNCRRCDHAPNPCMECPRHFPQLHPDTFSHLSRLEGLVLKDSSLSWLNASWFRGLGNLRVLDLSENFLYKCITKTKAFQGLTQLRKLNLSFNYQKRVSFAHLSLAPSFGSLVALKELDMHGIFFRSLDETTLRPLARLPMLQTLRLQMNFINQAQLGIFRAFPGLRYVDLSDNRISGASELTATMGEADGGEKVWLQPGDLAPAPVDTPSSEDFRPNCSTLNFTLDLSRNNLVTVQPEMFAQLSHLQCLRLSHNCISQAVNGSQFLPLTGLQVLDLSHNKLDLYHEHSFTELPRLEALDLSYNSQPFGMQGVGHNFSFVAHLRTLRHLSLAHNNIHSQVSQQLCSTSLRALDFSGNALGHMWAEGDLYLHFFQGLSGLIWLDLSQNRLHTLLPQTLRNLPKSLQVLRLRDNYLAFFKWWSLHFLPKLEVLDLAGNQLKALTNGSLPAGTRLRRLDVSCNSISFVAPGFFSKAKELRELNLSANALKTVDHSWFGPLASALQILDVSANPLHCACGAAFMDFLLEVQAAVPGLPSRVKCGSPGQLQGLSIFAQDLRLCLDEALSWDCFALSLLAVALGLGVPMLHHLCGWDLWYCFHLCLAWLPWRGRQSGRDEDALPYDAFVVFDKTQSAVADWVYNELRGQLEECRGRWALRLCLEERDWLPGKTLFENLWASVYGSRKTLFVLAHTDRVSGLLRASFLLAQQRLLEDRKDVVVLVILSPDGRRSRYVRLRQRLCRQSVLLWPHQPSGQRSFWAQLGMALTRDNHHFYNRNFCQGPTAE
Protocol: TLR7/8/9 Inhibition Reporter Assays
HEK-Blue™-cells (Invivogen) overexpressing human TLR7, TLR8 or TLR9 receptors were used for screening inhibitors of these receptors using an inducible SEAP (secreted embryonic alkaline phosphatase) reporter gene under the control of the IFN-β minimal promoter fused to five NF-κB and AP-1-binding sites. Briefly, cells are seeded into Greiner 384 well plates (15000 cells per well for TLR7, 20,000 for TLR8 and 25,000 for TLR9) and then treated with test compounds in DMSO to yield a final dose response concentration range of 0.05 nM-50 μM. After a 30 minute compound pre-treatment at room temperature, the cells are then stimulated with a TLR7 ligand (gardiquimod at a final concentration of 7.5 μM), TLR8 ligand (R848 at a final concentration of 15.9 μM) or TLR9 ligand (ODN2006 at a final concentration of 5 nM) to activate NF-κB and AP-1 which induce the production of SEAP. After a 22 hour incubation at 37° C., 5% CO2, SEAP levels are determined with the addition of HEK-Blue™ Detection reagent (Invivogen), a cell culture medium that allows for detection of SEAP, according to manufacturer's specifications. The percent inhibition is determined as the % reduction in the HEK-Blue signal present in wells treated with agonist plus DMSO alone compared to wells treated with a known inhibitor.

human TLR8 = target: T3, human TLR8 (Homo sapiens, UniProt Q9NR97); assay: TLR8 inhibition reporter assay (HEK-Blue cells, SEAP reporter, R848 stimulation); conditions: HEK-Blue cells overexpressing human TLR8, SEAP reporter, R848 15.9 μM; read-out: TLR8 IC50
T3 construct: host or cells: HEK-Blue cells
T3 sequence (Q9NR97 27-1041): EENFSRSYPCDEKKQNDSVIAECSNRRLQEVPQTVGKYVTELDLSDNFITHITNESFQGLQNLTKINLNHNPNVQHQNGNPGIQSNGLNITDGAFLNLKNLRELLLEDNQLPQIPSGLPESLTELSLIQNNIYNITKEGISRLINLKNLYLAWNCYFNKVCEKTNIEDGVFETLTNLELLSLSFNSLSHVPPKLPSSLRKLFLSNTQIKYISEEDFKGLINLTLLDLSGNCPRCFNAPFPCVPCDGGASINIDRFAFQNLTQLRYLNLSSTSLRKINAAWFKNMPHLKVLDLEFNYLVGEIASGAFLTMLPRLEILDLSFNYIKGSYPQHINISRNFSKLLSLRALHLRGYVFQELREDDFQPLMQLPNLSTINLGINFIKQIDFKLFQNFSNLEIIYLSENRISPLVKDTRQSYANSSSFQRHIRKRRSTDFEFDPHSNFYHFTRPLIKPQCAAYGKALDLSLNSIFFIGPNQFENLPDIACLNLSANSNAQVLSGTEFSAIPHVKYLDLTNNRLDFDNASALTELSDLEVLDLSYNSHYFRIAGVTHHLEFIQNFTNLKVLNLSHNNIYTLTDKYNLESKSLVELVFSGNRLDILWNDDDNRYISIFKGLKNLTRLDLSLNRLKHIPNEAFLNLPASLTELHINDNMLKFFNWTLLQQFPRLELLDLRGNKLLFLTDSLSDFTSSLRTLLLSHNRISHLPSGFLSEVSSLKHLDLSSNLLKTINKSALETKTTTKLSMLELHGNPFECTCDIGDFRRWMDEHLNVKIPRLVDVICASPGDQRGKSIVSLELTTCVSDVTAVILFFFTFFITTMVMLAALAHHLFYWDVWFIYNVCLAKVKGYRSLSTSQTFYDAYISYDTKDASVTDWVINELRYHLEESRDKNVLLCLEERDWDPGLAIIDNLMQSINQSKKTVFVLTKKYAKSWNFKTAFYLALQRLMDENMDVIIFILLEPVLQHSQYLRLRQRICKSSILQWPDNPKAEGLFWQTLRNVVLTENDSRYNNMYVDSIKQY
In short: as §1

Row | Compound | IC50 (human TLR7) | IC50 (human TLR9) | IC50 (human TLR8)
1 | Cc1c(-c2[nH]c3sc(C4CCC(NC5CCS(=O)(=O)C5)CC4)nc3c2C(C)C)cn2ncnc2c1C (racemic) [Example 230, 3-((4-(5-(7,8-dimethyl-[1,2,4]triazolo[1,5-a]pyridin-6-yl)-6-isopropyl-4H-pyrrolo[3,2-d]thiazol-2-yl)cyclohexyl)amino)tetrahydrothiophene 1,1-dioxide] | 4.92 nM | 43500 nM | 1.5 nM
2 | COc1cc(-c2[nH]c3sc(C4CCC(NC5COC5)CC4)nc3c2C(C)C)cn2ncnc12 (single isomer, unassigned) [Example 66, N-(4-(6-isopropyl-5-(8-methoxy-[1,2,4]triazolo[1,5-a]pyridin-6-yl)-4H-pyrrolo[3,2-d]thiazol-2-yl)cyclohexyl)oxetan-3-amine] | 3.59 nM | 5710 nM | 16.9 nM
3 | COc1cc(-c2[nH]c3sc(C4CCC(N5CC(CO)(CO)C5)CC4)nc3c2C(C)C)cn2ncnc12 (single isomer, unassigned) [Example 67, (1-(4-(6-isopropyl-5-(8-methoxy-[1,2,4]triazolo[1,5-a]pyridin-6-yl)-4H-pyrrolo[3,2-d]thiazol-2-yl)cyclohexyl)azetidine-3,3-diyl)dimethanol] | 12.6 nM | 2250 nM | 12.9 nM
4 | COc1cc(-c2[nH]c3sc(C4CCC(N5CC6(COC6)C5)CC4)nc3c2C(C)C)cn2ncnc12 (single isomer, unassigned) [Example 68, 6-(4-(6-isopropyl-5-(8-methoxy-[1,2,4]triazolo[1,5-a]pyridin-6-yl)-4H-pyrrolo[3,2-d]thiazol-2-yl)cyclohexyl)-2-oxa-6-azaspiro[3.3]heptane] | 0.81 nM | 3500 nM | 0.58 nM
5 | COc1cc(-c2[nH]c3sc(C4CCC(N5CC6(COC6)C5)CC4)nc3c2C(C)C)cn2ncnc12 (single isomer, unassigned) [Example 69, 6-(4-(6-isopropyl-5-(8-methoxy-[1,2,4]triazolo[1,5-a]pyridin-6-yl)-4H-pyrrolo[3,2-d]thiazol-2-yl)cyclohexyl)-2-oxa-6-azaspiro[3.3]heptane] | 4.17 nM | 6320 nM | 35.6 nM
6 | COc1cc(-c2[nH]c3sc(C4CCC(NC5(C)COC5)CC4)nc3c2C(C)C)cn2ncnc12 (single isomer, unassigned) [Example 70, N-(4-(6-isopropyl-5-(8-methoxy-[1,2,4]triazolo[1,5-a]pyridin-6-yl)-4H-pyrrolo[3,2-d]thiazol-2-yl)cyclohexyl)-3-methyloxetan-3-amine] | 0.58 nM | 6610 nM | 1.46 nM
7 | COc1cc(-c2[nH]c3sc(C4CCC(NC5(C)COC5)CC4)nc3c2C(C)C)cn2ncnc12 (single isomer, unassigned) [Example 71, N-(4-(6-isopropyl-5-(8-methoxy-[1,2,4]triazolo[1,5-a]pyridin-6-yl)-4H-pyrrolo[3,2-d]thiazol-2-yl)cyclohexyl)-3-methyloxetan-3-amine] | 6.92 nM | 5810 nM | 19 nM
8 | COCCN1CCN(c2nc3c(C(C)C)c(-c4cc(C)c5ncnn5c4)[nH]c3s2)[C@H](C)C1 [Example 357, (R)-6-isopropyl-2-(4-(2-methoxyethyl)-2-methylpiperazin-1-yl)-5-(8-methyl-[1,2,4]triazolo[1,5-a]pyridin-6-yl)-4H-pyrrolo[3,2-d]thiazole] | 1280 nM | 38100 nM | –
9 | Cc1cc(-c2[nH]c3sc(N4CCN(CC(C)C)C[C@H]4C)nc3c2C(C)C)cn2ncnc12 [Example 361, (R)-2-(4-isobutyl-2-methylpiperazin-1-yl)-6-isopropyl-5-(8-methyl-[1,2,4]triazolo[1,5-a]pyridin-6-yl)-4H-pyrrolo[3,2-d]thiazole] | 719 nM | 45600 nM | –
